2 compounds from EP0912751B1, “PROCESS FOR PREPARATION OF D-PROLINE D[…] MEANS OF MICRO-ORGANISMS” (LONZA AG, priority 1996, dated 1998) can be followed below.

For orientation: Km means the substrate concentration at which the rate is half of its maximum.

The test relates to Amidinohydrolase. Nature of the test: Enzyme characterisation (kinetics and inhibition) with whole cells. The class given is biochemical, Pseudomonas aeruginosa (DSM 10581). The procedure: Die Enzymcharakterisierung wurde mit ganzen Zellen von Pseudomonas aeruginosa (DSM 10581) durchgeführt. Dabei betrug die optische Dichte der Zellsuspension OD600 = 17. Der Einfluss der Temperatur wurde in 100 mM Phosphatpuffer (pH 7 - 8) bei einer Substratkonzentration von 25 mM L-α-Chlor-δ-guanidinvaleriansäure bestimmt. Dabei zeigte sich, dass bei 37 °C eine um 40% höhere Aktivität als bei 30 °C erhalten wurde. Der Einfluss des pH-Wertes wurde in gleichem Puffer, bei gleicher Substratkonzentration und bei einer Temperatur von 37 °C ermittelt. Gemessen wurde die Aktivität bei pH 7; pH 7,5; pH 8,0, pH 8,5. Dabei wurde festgestellt, dass das pH-Optimum bei pH 8,5 lag. Durch Einsatz von verschiedenen Konzentrationen an L-α-Chlor-δ-guanidinvaleriansäure wurde der KM-Wert und Vmax bei einer Temperatur von 37 °C, in 100 mM Phosphatpuffer (pH 8,5), bestimmt. Der KM-Wert betrug 85,2 mmol / l und Vmax 0,38 mmol / l / min (Fig. 3).
Durch Zugabe von verschiedenen Konzentrationen an L-α-Chlor-δ-aminovaleriansäure (hergestellt aus Ornithin analog zu Beispiel 6) konnte eine Hemmung nachgewiesen werden.

Structures are written as SMILES.

On to `NCCC[C@H](Cl)C(=O)O` [L-α-Chlor-δ-aminovaleriansäure], for which the Hemmung entry (inhibitor at a concentration of 50 mM (Fig. 4)) was “vollständige Hemmung”.
On to `N=C(N)NCCC[C@H](Cl)C(=O)O` [L-α-Chlor-δ-guanidinvaleriansäure], for which the “Hemmung der Amidinohydrolase” value (listed as a property of the enzyme, no concentration given) is “gehemmt”. For the same compound, the Vmax (substrate of the enzyme, 37 °C, 100 mM Phosphatpuffer (pH 8,5), whole cells, OD600 = 17) is recorded as 0,38 mmol / l / min. Moreover, for the setting “substrate of the enzyme, 37 °C, 100 mM Phosphatpuffer (pH 8,5), whole cells, OD600 = 17, read-out: KM-Wert”, the Km was determined as 85.2 mM.
